Source: publication PMC10102062, “Effects of DPTQ, a novel positive allosteric modulator of the dopamine D1 receptor, on spontaneous eye blink rate and spatial working memory in the nonhuman primate” (Psychopharmacology, 2023)

What was measured:
[1] = set-up: method as in Hao et al. [2019]; conditions: after systemic dosing; ref Hao et al. [2019]; cited from earlier work
[2] = system: rhesus monkey; test: Spatial delayed response working memory task; type: in vivo, rhesus and one stumptail macaque; conditions: for Delay-dependent errors: 0.1 mg/kg; for Delay-dependent errors at short delays: 1.0 mg/kg
Description: Sixteen rhesus and one stumptail macaque participated in the study (details provided below) that was performed at Yale University, New Haven CT, USA. Animals were used and cared for in full accordance with Yale University’s IACUC guidelines and polices in addition to all U.S. Federal policies and regulations. The monkeys were fed their normal diet each day, including appropriately nutritional biscuits and multiple fruits and vegetables for enrichment. Testing and any training occurred just before their main food course. This food consisted of biscuits, delivered each day, and all animals had full 24-h access to ad libitum water. Participation in cognitive testing was ensured by the enrichment of the environmental stimulation and the provision of the animals’ favorite food treats as rewards in the task, including yoghurt, raisins, almonds, grapes, fruit loops, and multiple other food items (Roberts et al [2010]).
The circuitry involved in this response is almost exclusively “dorsal stream” involving dorsolateral prefrontal cortex, particularly Area 46, and the lateral intraparietal sulcus (Goldman-Rakic [1996]). For a full description of the task used here, see Roberts et al. ([2010]). Animals were tested in a sound-attenuated room incorporating a testing chamber. In this task one of several well locations is baited with food in view of the animal and the wells are then covered with identical plaques. An opaque shutter is then lowered for one of 5 variable delays and then raised to allow the animal to make a response to one of the well locations to retrieve the food. Each delay length was repeated 4 times in a semirandom distribution across the 20 trials in each testing session. Each animal was stabilized prior to commencing any administration by gradually incrementing the number of wells (starting at just 2) and the lengths of the delay. The 5 variable delay lengths were set at 0, 1, 2, 3, and 4 s multiplied by a factor “N.” Thus, N was incremented by 1 up to a maximum of 10 until the subject performed at 80% or more across 3 consecutive test sessions whereupon the number of wells was incremented by 1. This process was repeated for each individual until they reached stable performance (65–75% ± ≤ 2.5% correct). This normalized level of performance allows for the sensitive detection of any impairment or improvement produced by experimental conditions. For baseline data for this study, we took 7 or more consecutive data points that had been collected in previous weeks which fell within the stable limits for the test. For the total group of 17 animals participating in this study, the median well number was 4 (range 2–7) and the median N value was 3 (range 1–7). Animals were typically tested 2 to 3 days a week.
DPTQ (free base, Eli Lilly & Co.) was prepared as described above for the spontaneous eye blink test. Animals (4 males and 6 females, mean age = 22.1 ± 1.7 years) were originally assigned to receive either vehicle or DPTQ 2.5 mg/kg IM in a semi-random design. One animal received vehicle but was not dosed with DPTQ. This same group of animals was later used in a repeated dosing study with DPTQ 2.5 mg/kg vs vehicle. After a protracted washout period of several months we tested the lower doses of 0.1 mg/kg and 1.0 mg/kg in ascending order. This group of 10 animals included 3 from the previous study (3 males, 7 females (including one aged stumptail macaque); average age = 22.6 ± 1.7 years). The youngest animal in this study was aged 17.3 years. None of the animals were naïve and had all been used in previous studies with other compounds. They were given an extensive washout of weeks or months prior to this study and were established to have normal baseline performance on the task. During the study, animals were washed out based on known PK properties (half-life) of this drug as well as the baseline performance of each individual animal. […]

[3] = system: human D1; set-up: method as in Hao et al. [2019]; conditions: stably transfected human D1 cloned cells; ref Hao et al. [2019]; read-out: EC50 for potentiation of the dopamine-induced increase in cAMP; cited from earlier work
[4] = Brain penetration, unbound brain/plasma ratio and unbound ligand fraction; conditions: J. Cramer, unpublished data
[5] = Plasma ligand exposure after IM injection (LC/MS) and projected brain concentrations; type: in vivo, macaque monkeys
Description: Plasma samples were collected in EDTA tubes at 0, 0.25, 0.50, 1, 2, 4, 8, 12, and 24 h after a bolus IM injection and stored at − 70C until further analysis by LC/MS (for further details see Hao et al. [2019]). For the lower dose of 0.1 mg/kg, IM, plasma samples were collected from three of the animals participating in the spatial working memory task at Yale University, at approximately 1.5 h after dosing (~ 30 min after completion of behavioral test session). Animals were acclimated to sitting freely in a customized chair and having one leg held for hair trimming (if necessary), wiping with 70% alcohol, and saphenous venopuncture using a BD Vacutainer tube inside a safety holder. For the 5 mg/kg, IM dose, plasma samples were collected in a separate study in three male adult macaque monkeys at Eli Lilly and Company, Indianapolis, IN. The collection and storage of samples followed the procedure described above, and analysis of D1 ligand levels was carried out at Eli Lilly and Company, Indianapolis, IN, USA, using liquid chromatography and tandem mass spectrometry.

## C[C@H]1c2cccc(CC(C)(C)O)c2C[C@H](CO)N1C(=O)Cc1c(Cl)cccc1Cl [DPTQ]
[1]
  Brain penetration: acceptable brain penetration
[2]; 0.1 mg/kg IM, n = 10, no diminution on day 3, p = 0.014
  Working memory performance over 2 weeks: modest enhancement of working memory
[2]; day 1, short (0, 1) N and long (3, 4) N delays
  Delay-dependent errors: slight increase in errors
[2]; day 5, particularly long delays
  Delay-dependent errors: small but non-significant decrease in errors
[2]; 1.0 mg/kg IM, n = 8, p = 0.006, strongest day 4 p < 0.0001
  Working memory performance over 2 weeks: significant improvement in working memory
[2]; day 1
  Delay-dependent errors at short delays: no reduction in errors
[2]; day 5
  Delay-dependent errors at short delays: reduction
[2]; 2.5 mg/kg IM on days 1 and 5, n = 6
  Working memory performance day 3: non-significant dip
[2]; 2.5 mg/kg IM on days 1 and 5, day after repeat dose
  Working memory performance day 6: reduction in performance to baseline
[2]; 2.5 mg/kg IM on days 1 and 5, days 8, 12 p < 0.05, days 10, 14 p < 0.01
  Working memory performance days 8-14: enhancement
[2]; 2.5 mg/kg IM on days 1 and 5, p < 0.01
  Working memory performance days 4 and 5: rebound enhancement
[2]; 2.5 mg/kg IM single dose, day 1, 1 h post injection, n = 9
  Working memory performance, acute effect: No immediate acute effect
[2]; 2.5 mg/kg IM single dose, day 2
  Diminution of performance: 10%
[2]; 2.5 mg/kg IM single dose, day 3, p = 0.025 vs baseline, baseline 65–75% correct
  Mean performance score: 61.1
[2]; 2.5 mg/kg IM single dose, day 4, improvement days 4, 5, 6 p < 0.01
  Mean performance score: 84.3
[2]; 2.5 mg/kg day 1, vehicle day 5, n = 10, p = 0.278 vs baseline
  Working memory deficit on day 3: small and did not achieve significance
[2]; 2.5 mg/kg day 1, vehicle day 5, days 4, 8 p < 0.001, day 5 p < 0.0001, days 10, 12 p < 0.05
  Working memory performance days 4-12: enhancement
[2]; 0.1 to 2.5 mg/kg IM
  Dose range over which procognitive effects were observed: at least 25 fold
[2]; 1 h after injection, regardless of the dose administered
  Acute effect on spatial working memory: entirely null acute effect
[2]; day 3, p < 0.01, p < 0.05 respectively
  Score on day 3 at 0.1 and 1.0 mg/kg compared with 2.5 mg/kg: significantly higher score
[2]; day 4
  Score on day 4 at 2.5 mg/kg compared with 0.1 mg/kg: significantly greater
[2]; day 5, 0.1, 1.0, 2.5 mg/kg
  Difference in scores attributable to dose: No difference
[3]
  EC50: 76 nM
[4]
  Unbound brain vs unbound plasma concentration ratio: about 0.3
  Unbound ligand fraction: 0.068
[5]; 0.1 mg/kg IM, 1.5 h after dosing
  Estimated unbound ligand concentrations in the brain: 1 to 2 nM
[5]; 5 mg/kg IM, 2 h post dosing, hD1 and monkey D1 cAMP assay
  Projected unbound brain concentration as multiple of cAMP EC50: eightfold down to onefold
[5]; 0.1 vs 5 mg/kg IM
  Plasma levels at 0.1 mg/kg IM relative to 5 mg/kg IM (times lower): about 50 ×
[5]; after 12 or 24 h
  Plasma concentrations at late time points: negligible
